Some results are limits rather than exact numbers.

Chain of Human Factor XIIa (P00748 373-615): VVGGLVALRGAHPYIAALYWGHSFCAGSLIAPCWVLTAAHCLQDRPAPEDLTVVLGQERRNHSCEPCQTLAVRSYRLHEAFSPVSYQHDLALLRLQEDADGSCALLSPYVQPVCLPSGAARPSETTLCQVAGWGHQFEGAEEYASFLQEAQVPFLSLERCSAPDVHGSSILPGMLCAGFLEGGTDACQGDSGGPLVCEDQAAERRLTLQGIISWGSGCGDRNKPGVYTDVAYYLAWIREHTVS

For the first assay, the target named is Human Factor XIIa (Homo sapiens (Human), UniProt P00748). Description: Determination of FXIIa inhibition (fluorogenic substrate H-DPro-Phe-Arg-AFC, IC50 assay). Format: biochemical. Particulars: substrate H-DPro-Phe-Arg-AFC at Km, 25° C.; class scale A-G. How it is done:
Determination of FXIIa Inhibition
In vitro inhibition of Factor XIIa was determined using an IC50 assay based on standard literature methods (see e.g Baeriswyl et al., ACS Chem. Biol., 2015, 10 (8) 1861; Bouckaert et al., European Journal of Medicinal Chemistry 110 (2016) 181). Human Factor XIIa (Enzyme Research Laboratories) was incubated at 25° C. with the fluorogenic substrate H-DPro-Phe-Arg-AFC (Peptide Protein Science) and various concentrations of the test compound. Protease activity was measured by monitoring the accumulation of liberated fluorescence from the substrate over 5 min at 25° C. The linear rate of fluorescence increase per minute was expressed as percentage (%) activity. The Km for the cleavage of the substrate by FXIIa was determined by standard transformation of the Michaelis-Menten equation. The compound inhibitor assays were performed at substrate Km concentration. IC50 values were calculated as the concentration of inhibitor giving 50% inhibition (IC50) of the uninhibited enzyme activity (100%).
In general, IC50 refers to the concentration at which inhibition is half-maximal. `CN1CCC(COc2cc(CNc3ccc4c(N)nccc4c3)ccn2)CC1=O` (centres unmarked) [Example 4416, 4-{[(4-{[(1-aminoisoquinolin-6-yl)amino]methyl}pyridin-2-yl)oxy]methyl}-1-methylpiperidin-2-one] displayed an IC50 of 0.3 to 1 µM.

With `CCC1c2nnc(C(F)(F)F)n2CCN1c1cc(C)c(CNc2cccc3c(N)nccc23)cn1` (single isomer, unassigned) [Example 1321, (S*)-N5-((6-(8-ethyl-3-(trifluoromethyl)-5,6-dihydro-[1,2,4]triazolo[4,3-a]pyrazin-7(8H)-yl)-4-methylpyridin-3-yl)methyl)isoquinoline-1,5-diamine], the IC50 was in the range of 0.1 to 0.3 µM.

`COCC1c2nnc(C(F)(F)F)n2CCN1c1cc(C)c(CNc2cccc3c(N)nccc23)cn1` (single isomer, unassigned) [Example 1343, (S*)-N5-((6-(8-(methoxymethyl)-3-(trifluoromethyl)-5,6-dihydro-[1,2,4]triazolo[4,3-a]pyrazin-7(8H)-yl)-4-methylpyridin-3-yl)methyl)isoquinoline-1,5-diamine] gave an IC50 of 3 to 10 µM.

Regarding `Cc1nnc2n1CCC(COc1cc(CNc3ccc4c(N)nccc4c3)ccn1)C2` (centres unmarked) [Example 4413, 6-N-{[2-({3-methyl-5H,6H,7H,8H-[1,2,4]triazolo[4,3-a]pyridin-7-yl}methoxy)pyridin-4-yl]methyl}isoquinoline-1,6-diamine], the IC50 was in the range of 1 to 3 µM.

The molecule `Nc1nccc2cc(NCc3ccnc(OCC4CCn5cc(C(F)(F)F)nc5C4)c3)ccc12` (centres unmarked) [Example 4266, 6-N-[(2-{[2-(trifluoromethyl)-5H,6H,7H,8H-imidazo[1,2-a]pyridin-7-yl]methoxy}pyridin-4-yl)methyl]isoquinoline-1,6-diamine] had an IC50 of 1 to 3 µM.

Molecule `Cc1cc(N2CCn3c(nnc3C(F)(F)F)C2)ncc1CNc1ccc2c(N)nccc2c1` [Example 1333, N6-((4-methyl-6-(3-(trifluoromethyl)-5,6-dihydro-[1,2,4]triazolo[4,3-a]pyrazin-7(8H)-yl)pyridin-3-yl)methyl)isoquinoline-1,6-diamine] showed an IC50 of 0.1 to 0.3 µM.

Consider `CN1CCC(COc2ccc(CNc3cccc4c(N)ncnc34)cn2)CC1` [Example 1022, N8-[[6-[(1-methyl-4-piperidyl)methoxy]-3-pyridyl]methyl]quinazoline-4,8-diamine], for which the IC50 lay within 10 to 40 µM.

`CN1CCC(COc2ccc(CNc3cnc4[nH]cc(Cl)c4c3)cn2)CC1` [Example 1020, 3-chloro-N-((6-((1-methylpiperidin-4-yl)methoxy)pyridin-3-yl)methyl)-1H-pyrrolo[2,3-b]pyridin-5-amine] registered an IC50 of 1 to 3 µM.

`Nc1nccc2cc(NCc3ccnc(OCC4CCn5cnnc5C4)c3)ccc12` (centres unmarked) [Example 4411, 6-N-[(2-{5H,6H,7H,8H-[1,2,4]triazolo[4,3-a]pyridin-7-ylmethoxy}pyridin-4-yl)methyl]isoquinoline-1,6-diamine] displayed an IC50 of 0.3 to 1 µM.

In turn, `Cn1ccnc1CCCOc1cc(CNc2ccc3c(N)nccc3c2)ccn1` [Example 4420, 6-N-({2-[3-(1-methylimidazol-2-yl)propoxy]pyridin-4-yl}methyl)isoquinoline-1,6-diamine] gave an IC50 of 1 to 3 µM.

As to `Nc1nccc2c(NCc3ccnc(N4CCn5c(nnc5C(F)(F)F)C4)c3)cccc12` [Example 4472, N5-((2-(3-(trifluoromethyl)-5,6-dihydro-[1,2,4]triazolo[4,3-a]pyrazin-7(8H)-yl)pyridin-4-yl)methyl)isoquinoline-1,5-diamine], the IC50 lay in the range of 1 to 3 µM.

Turning to `Nc1nccc2c(NCc3cc(N4CCn5c(nnc5C(F)(F)F)C4)cs3)cccc12` [Example 8459, N5-((4-(3-(Trifluoromethyl)-5,6-dihydro-[1,2,4]triazolo[4,3-a]pyrazin-7(8H)-yl)thiophen-2-yl)methyl)isoquinoline-1,5-diamine], the IC50 fell in the range of 0.1 to 0.3 µM.

In the case of `CN1CCC(OCc2ccc(CN(C)c3ccc4cnccc4c3)cc2)CC1` [Example 2204, N-methyl-N-[(4-{[(1-methylpiperidin-4-yl)oxy]methyl}phenyl)methyl]isoquinolin-6-amine], the IC50 was 0.3 to 1 µM.

`Cn1ccnc1CCCNc1ncc(CNc2ccc3c(N)ncc(Cl)c3c2)cn1` [Example 1038, 4-chloro-6-N-[(2-{[3-(1-methylimidazol-2-yl)propyl]amino}pyrimidin-5-yl)methyl]isoquinoline-1,6-diamine] gave an IC50 of 3 to 10 µM.

Molecule `CN1CCN(CCc2cccc(CNc3ccc4c(N)nccc4c3)c2)CC1` [Example 4288, 6-N-({3-[2-(4-methylpiperazin-1-yl)ethyl]phenyl}methyl)isoquinoline-1,6-diamine] showed an IC50 of 3 to 10 µM.

`Cc1cc(N2CCn3c(nnc3C(F)(F)F)C2)ncc1CNc1ccc2c(N)ncc(Cl)c2c1` [Example 1334, 4-chloro-N6-((4-methyl-6-(3-(trifluoromethyl)-5,6-dihydro-[1,2,4]triazolo[4,3-a]pyrazin-7(8H)-yl)pyridin-3-yl)methyl)isoquinoline-1,6-diamine] gave an IC50 of 0.3 to 1 µM.

`CN1CCC(C)(COc2cc(CNc3ccc4c(N)nccc4c3)ccn2)CC1` [Example 4425, 6-N-({2-[(1,4-dimethylpiperidin-4-yl)methoxy]pyridin-4-yl}methyl)isoquinoline-1,6-diamine]: the IC50 fell in the range of 0.3 to 1 µM.

Turning to `CN1CCC(OCc2ccc(S(=O)(=O)Nc3ccc4c(N)nccc4c3)cc2)CC1` [Example 2210, N-(1-aminoisoquinolin-6-yl)-4-(((1-methylpiperidin-4-yl)oxy)methyl)benzenesulfonamide], the IC50 lay in the range of 0.3 to 1 µM.

`CCC1c2nnc(C(F)(F)F)n2CCN1c1cc(C)c(CNc2cccc3c(N)nccc23)cn1` (single isomer, unassigned) [Example 1320, (R*)-N5-((6-(8-ethyl-3-(trifluoromethyl)-5,6-dihydro-[1,2,4]triazolo[4,3-a]pyrazin-7(8H)-yl)-4-methylpyridin-3-yl)methyl)isoquinoline-1,5-diamine] showed an IC50 of 10 to 40 µM.

For `COCC1c2nnc(C(F)(F)F)n2CCN1c1cc(C)c(CNc2cccc3c(N)nccc23)cn1` (centres unmarked) [Example 1319, N5-((6-(8-(methoxymethyl)-3-(trifluoromethyl)-5,6-dihydro-[1,2,4]triazolo[4,3-a]pyrazin-7(8H)-yl)-4-methylpyridin-3-yl)methyl)isoquinoline-1,5-diamine], the IC50 was 0.01 to 0.1 µM.

`Nc1nccc2cc(NCc3ccnc(N4CCn5c(nnc5C(F)(F)F)C4)c3)ccc12` [Example 4471, N6-((2-(3-(trifluoromethyl)-5,6-dihydro-[1,2,4]triazolo[4,3-a]pyrazin-7(8H)-yl)pyridin-4-yl)methyl)isoquinoline-1,6-diamine] came in with an IC50 of 10 to 40 µM.

Turning to `CN1CCN(Cc2ccc(CNc3ccc4c(N)nccc4c3)cc2)CC1` [Example 1007, 6-N-({4-[(4-methylpiperazin-1-yl)methyl]phenyl}methyl)isoquinoline-1,6-diamine], the IC50 was 0.3 to 1 µM.

Consider `CN1CC2(CC(OCc3ccc(CNc4ccc5c(N)nccc5c4)c(F)c3)CS2)C1` (centres unmarked) [Example 2252, 6-N-({2-fluoro-4-[({2-methyl-5-thia-2-azaspiro[3.4]octan-7-yl}oxy)methyl]phenyl}methyl)isoquinoline-1,6-diamine], for which the IC50 was in the range of 0.3 to 1 µM.

Consider `Cc1cc(N2CCn3c(nnc3C(F)(F)F)C2)ncc1CNc1ccnc(N)c1` [Example 1323, N4-((4-methyl-6-(3-(trifluoromethyl)-5,6-dihydro-[1,2,4]triazolo[4,3-a]pyrazin-7(8H)-yl)pyridin-3-yl)methyl)pyridine-2,4-diamine], for which the half-inhibitory concentration (IC50) was in the range of 10 to 40 µM.

`CN1CCC(COc2ccc(CNc3ccc4c(N)nccc4c3)cn2)CC1=O` (centres unmarked) [Example 1015, 4-{[(5-{[(1-aminoisoquinolin-6-yl)amino]methyl}pyridin-2-yl)oxy]methyl}-1-methylpiperidin-2-one] came in with an IC50 of 0.3 to 1 µM.

In the case of `CN1CCC(COc2ccc(CNc3ccc4cncc(CO)c4c3)cn2)CC1` [Example 1026, (6-(((6-((1-Methylpiperidin-4-yl)methoxy)pyridin-3-yl)methyl)amino)isoquinolin-4-yl)methanol], the IC50 is 10 to 40 µM.

Another assay deals with Plasma Kallikrein (Homo sapiens (Human), UniProt P03952). The experiment in a line: Determination of related protease inhibition: Plasma Kallikrein (fluorogenic substrate at Km). Format: biochemical. Particulars: 25° C., read-out: IC50 (human PKal). Here is the method: Determination of Related Protease Inhibition
Chain of Plasma Kallikrein (P03952 391-638): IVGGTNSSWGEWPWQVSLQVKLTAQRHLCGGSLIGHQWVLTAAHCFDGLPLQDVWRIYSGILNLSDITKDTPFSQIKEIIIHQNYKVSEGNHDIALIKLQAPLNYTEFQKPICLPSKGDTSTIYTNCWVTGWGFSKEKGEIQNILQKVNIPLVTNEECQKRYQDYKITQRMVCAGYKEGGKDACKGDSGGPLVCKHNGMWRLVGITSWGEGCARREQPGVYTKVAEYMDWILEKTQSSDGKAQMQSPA
Chain of Plasma Kallikrein (P03952 20-390 partner): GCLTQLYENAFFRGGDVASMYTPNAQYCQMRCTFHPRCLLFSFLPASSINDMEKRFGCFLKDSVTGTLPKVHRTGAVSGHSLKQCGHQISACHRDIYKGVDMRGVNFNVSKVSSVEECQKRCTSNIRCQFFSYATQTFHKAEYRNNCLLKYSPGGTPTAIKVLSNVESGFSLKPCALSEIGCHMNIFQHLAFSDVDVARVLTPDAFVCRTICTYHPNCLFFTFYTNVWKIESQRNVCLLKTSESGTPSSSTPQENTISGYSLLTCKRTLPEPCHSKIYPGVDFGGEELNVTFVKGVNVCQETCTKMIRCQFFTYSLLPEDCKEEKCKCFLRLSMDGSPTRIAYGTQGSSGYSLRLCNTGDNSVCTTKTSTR
In vitro inhibition of related proteases was determined using an ([…] assay based on standard literature methods (see e.g. Shori et al., Biochem. Pharmacol., 1992, 43, 1209; Bouckaert et al., European Journal of Medicinal Chemistry 110 (2016) 181). Human serine protease enzymes Plasma Kallikrein, KLK1, FXa, Plasmin, Thrombin and Trypsin were assayed for enzymatic activity using an appropriate fluorogenic substrate at Km concentration, FXIa at fixed substrate concentration of 100 μM, and various concentrations of the test compound. Protease activity was measured by monitoring the accumulation of liberated fluorescence from the substrate over […]. The linear rate of fluorescence increase per minute was expressed as percentage (%) activity. IC50 values were calculated as the concentration of inhibitor giving 50% inhibition of the uninhibited enzyme activity (100%).
With `CN1CCC(COc2cc(CNc3ccc(N(C)C)nn3)ccn2)CC1` [Example 4458, N3,N3-dimethyl-N6-((2-((1-methylpiperidin-4-yl)methoxy)pyridin-4-yl)methyl)pyridazine-3,6-diamine], the IC50 is more than 100 µM.

Regarding `CN1CCC(CNc2ccc(CNc3nc4ccccc4n3C)cn2)CC1` [Example 1192, 1-methyl-N-((6-(((1-methylpiperidin-4-yl)methyl)amino)pyridin-3-yl)methyl)-1H-benzo[d]imidazol-2-amine], the IC50 is more than 100 µM.

For the molecule `CN1CCC(CNc2ccc(CNc3cnc4ccccc4c3)cn2)CC1` [Example 1183, N-((6-(((1-methylpiperidin-4-yl)methyl)amino)pyridin-3-yl)methyl)quinolin-3-amine], the IC50 was more than 100 µM.

Source of the values: patent publication US20240059691A1 (KALVISTA PHARMACEUTICALS LIMITED, priority 2020, published 2024).
